Test [1] concerns the target Carbonic anhydrase 2 (Homo sapiens) (UniProt P00918).
Description: Inhibition of human carbonic anhydrase 2 at 20 degC by CO2 hydration method
For test [2], the target named is T1, Carbonic anhydrase (Methanobacterium thermoautotrophicum) (UniProt Q50565).
T1 sequence (whole entry): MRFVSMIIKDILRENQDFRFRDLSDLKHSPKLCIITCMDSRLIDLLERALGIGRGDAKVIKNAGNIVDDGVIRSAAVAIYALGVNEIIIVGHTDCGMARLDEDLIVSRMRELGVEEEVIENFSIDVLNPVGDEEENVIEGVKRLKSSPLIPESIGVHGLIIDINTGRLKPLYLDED
The following applies: Methanothermobacter thermautotrophicus.
Description: Inhibition of Methanobacterium thermoautotrophicum Cab at 20 degC by CO2 hydration method

Test [3] has as its target Carbonic anhydrase 1 (Homo sapiens) (UniProt P00915).
Description: Inhibition of human carbonic anhydrase 1 at 20 degC by CO2 hydration method

The text below walks through data of ChEMBL document CHEMBL1144164, “Carbonic anhydrase inhibitors: inhibition of the beta-class enzymes from the fungal pathogens Candida albicans and Cryptococcus neoformans with simple anions” (Bioorg Med Chem Lett, 2008).

Each structure is given as a SMILES string.

Sequence of Carbonic anhydrase 1 (Homo sapiens) (P00915 2-261 limits assumed): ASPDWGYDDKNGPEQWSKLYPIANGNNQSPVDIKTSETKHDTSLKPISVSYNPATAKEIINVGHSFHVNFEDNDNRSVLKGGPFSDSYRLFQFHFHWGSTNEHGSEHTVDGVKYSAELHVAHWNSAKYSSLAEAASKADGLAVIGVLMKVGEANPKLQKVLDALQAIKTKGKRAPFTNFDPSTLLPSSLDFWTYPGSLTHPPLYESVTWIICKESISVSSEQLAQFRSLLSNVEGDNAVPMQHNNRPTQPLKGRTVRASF
Description for Cryptococcus neoformans: Inhibition of Cryptococcus neoformans Can2 at 20 degC by CO2 hydration method

Take `NS(=O)(=O)O`: the Kinact in the test with Cryptococcus neoformans was found to be 8.22 mM; in test [1] it was 0.39 mM; in test [2], 44 mM; in test [3], 0.021 mM.
